Source: patent US20240024273A1, “TOPICAL ADMINISTRATION OF 2-(DIETHYLAMINO)ETHYL 2-(4-ISOBUTYLPHENYL)PROPRIONATE FOR TREATMENT OF DISEASES” (TECHFIELDS PHARMA CO., LTD., priority 2020, published 2024)

Key:
[1] = pig, in vivo, topical or ocular, 9 mg/kg
[2] = 14-day repeated dermal dose toxicity study; set-up: species or system Rats; details: rat, in vivo, topical or ocular; 14-day dermal
[3] = test system: osteoarthritis of the knee; assay: Second Phase 2 study: Subject's Global Assessment of Disease Status (SGADS); type: in vivo, human
Description: 4.9.2. Secondary Efficacy Endpoints: • 1. Change from Baseline in the WOMAC (VAS) pain subscale score for the target knee at 2, 8, and 12 weeks of treatment; • 2. Change from Baseline in the WOMAC (VAS) stiffness subscale scores for the target knee and WOMAC (VAS) functional ability subscale scores at 2, 4, 8, and 12 weeks of treatment; • 3. Change from Baseline in the overall WOMAC (VAS) score at 2, 4, 8, and 12 weeks of treatment; • 4. Subject's global assessment of disease status of the target knee at 2, 4, 8, and 12 weeks of treatment; • 5. Subject's global assessment of response to therapy of the target knee at 2, 4, 8, and 12 weeks of treatment; • 6. Amount of rescue medication (acetaminophen) consumed per day for target knee pain.

[4] = test system: Osteoarthritis Induced by Transection of the Anterior Cruciate Ligament (ACL); assay: Osteoarthritis induced by transection of the anterior cruciate ligament (I), treatment 4-10 weeks post-surgery; type: in vivo, SD Rats; details: transdermal; did not reach statistical significance
[5] = test system: Sprague Dawley rats; assay: Respiratory safety pharmacology study; type: in vivo; details: single dermal dose 50, 250, 750 mg/kg
[6] = test system: Mild to Moderate Osteoarthritis of the Knee; assay: Phase 2 study: physician's global assessment of disease status; type: in vivo, human
Description: 3.9.3. Exploratory Efficacy Endpoints: • 1. Subject's global assessment of disease status of the target knee at 2, 4, 8, and 12 weeks of treatment; • 2. Investigator's global assessment of disease status of the target knee at 2, 4, 8, and 12 weeks of treatment; • 3. Subject's global assessment of response to therapy of the target knee at 2, 4, 8, and 12 weeks of treatment; • 4. Investigator's global assessment of response to therapy of the target knee at 2, 4, 8, and 12 weeks of treatment; • 5. Change from Baseline over time in VAS pain scores for the target knee from Daily Diary data; • 6. Amount of rescue medication (acetaminophen) consumed per day for target knee pain.
Data for the exploratory efficacy endpoints will be summarized using descriptive statistics.

[7] = 17.5 mg/knee BID, Week 12, first 130 subjects
[8] = Week 12, 4.375 mg/knee BID (n = 23), first 130 subjects
[9] = Week 12, 8.75 mg/knee BID (n = 24), first 130 subjects
[10] = Week 12, 17.5 mg/knee BID (n = 19), first 130 subjects
[11] = all subjects, 4.375 mg/knee BID, n = 49, Week 12
[12] = all subjects, 8.75 mg/knee BID, n = 54, Week 12
[13] = all subjects, 17.5 mg/knee BID, n = 52, Week 12

CCN(CC)CCOC(=O)C(C)c1ccc(CC(C)C)cc1 (stereo not shown) [2-(diethylamino)ethyl 2-(4-isobutylphenyl)propionate]
plasma AUClast [1]: 1516 ng·h/mL
NOAEL at 14 days [2]: 250 mg/kg/day
SGADS, difference from oral ibuprofen [3, 7]: −14.2 mm
SGADS, difference from placebo [3, 7]: −18.6 mm
Subject’s Global Assessment of Disease Status Scores, Baseline (LS Mean) ([3]; 4.375 mg/knee BID (n = 23), first 130 subjects): 64.8 mm
Subject’s Global Assessment of Disease Status Scores, Baseline (LS Mean) ([3]; 8.75 mg/knee BID (n = 24), first 130 subjects): 67.2 mm
Subject’s Global Assessment of Disease Status Scores, Baseline (LS Mean) ([3]; 17.5 mg/knee BID (n = 19), first 130 subjects): 69.3 mm
Subject’s Global Assessment of Disease Status Scores, % of improvement from Oral Ibuprofen [3, 8]: −12.2%
Subject’s Global Assessment of Disease Status Scores, % of improvement from baseline [3, 8]: −50.6%
Subject’s Global Assessment of Disease Status Scores, % of improvement from placebo [3, 8]: −14.2%
Subject’s Global Assessment of Disease Status Scores, Changes from Baseline (LS Mean) [3, 8]: −32.8 mm
Subject’s Global Assessment of Disease Status Scores, Different from oral ibuprofen (LS Mean) [3, 8]: −3.9 mm
Subject’s Global Assessment of Disease Status Scores, Different from placebo (LS Mean) [3, 8]: −8.3 mm
Subject’s Global Assessment of Disease Status Scores, Week 12 (LS Mean) [3, 8]: 32.0 mm
Subject’s Global Assessment of Disease Status Scores, % of improvement from Oral Ibuprofen [3, 9]: −11.8%
Subject’s Global Assessment of Disease Status Scores, % of improvement from baseline [3, 9]: −50.7%
Subject’s Global Assessment of Disease Status Scores, % of improvement from placebo [3, 9]: −14.3%
Subject’s Global Assessment of Disease Status Scores, Changes from Baseline (LS Mean) [3, 9]: −34.1 mm
Subject’s Global Assessment of Disease Status Scores, Different from oral ibuprofen (LS Mean) [3, 9]: −5.2 mm
Subject’s Global Assessment of Disease Status Scores, Different from placebo (LS Mean) [3, 9]: −9.6 mm
Subject’s Global Assessment of Disease Status Scores, Week 12 (LS Mean) [3, 9]: 33.1 mm
Subject’s Global Assessment of Disease Status Scores, % of improvement from Oral Ibuprofen [3, 10]: −23.8%
Subject’s Global Assessment of Disease Status Scores, % of improvement from baseline [3, 10]: −62.2%
Subject’s Global Assessment of Disease Status Scores, % of improvement from placebo [3, 10]: −25.8%
Subject’s Global Assessment of Disease Status Scores, Changes from Baseline (LS Mean) [3, 10]: −43.1 mm
Subject’s Global Assessment of Disease Status Scores, Different from oral ibuprofen (LS Mean) [3, 10]: −14.2 mm
Subject’s Global Assessment of Disease Status Scores, Different from placebo (LS Mean) [3, 10]: −18.6 mm
Subject’s Global Assessment of Disease Status Scores, Week 12 (LS Mean) [3, 10]: 26.2 mm
Subject's Global Assessment of Disease Status Scores, % of improvement from Oral Ibuprofen [3, 11]: −5.3%
Subject's Global Assessment of Disease Status Scores, % of improvement from Placebo [3, 11]: −6.0%
Subject's Global Assessment of Disease Status Scores, % of improvement from baseline [3, 11]: −51.9%
Subject's Global Assessment of Disease Status Scores, Changes from Baseline (LS Mean) [3, 11]: −34.7 mm
Subject's Global Assessment of Disease Status Scores, Week 12 (LS Mean) [3, 11]: 32.1 mm
Subject's Global Assessment of Disease Status Scores, % of improvement from Oral Ibuprofen [3, 12]: −6.4%
Subject's Global Assessment of Disease Status Scores, % of improvement from Placebo [3, 12]: −7.1%
Subject's Global Assessment of Disease Status Scores, % of improvement from baseline [3, 12]: −53.0%
Subject's Global Assessment of Disease Status Scores, Changes from Baseline (LS Mean) [3, 12]: −36.6 mm
Subject's Global Assessment of Disease Status Scores, Different from oral ibuprofen (LS Mean) [3, 12]: −3.4 mm
Subject's Global Assessment of Disease Status Scores, Different from placebo (LS Mean) [3, 12]: −6.2 mm
Subject's Global Assessment of Disease Status Scores, Week 12 (LS Mean) [3, 12]: 32.4 mm
Subject's Global Assessment of Disease Status Scores, % of improvement from Oral Ibuprofen [3, 13]: −10.6%
Subject's Global Assessment of Disease Status Scores, % of improvement from Placebo [3, 13]: −11.3%
Subject's Global Assessment of Disease Status Scores, % of improvement from baseline [3, 13]: −57.2%
Subject's Global Assessment of Disease Status Scores, Changes from Baseline (LS Mean) [3, 13]: −38.3 mm
Subject's Global Assessment of Disease Status Scores, Different from placebo (LS Mean) [3, 13]: −7.9 mm
Subject's Global Assessment of Disease Status Scores, Week 12 (LS Mean) [3, 13]: 28.7 mm
severity of osteoarthritic degeneration (histopathology) [4]: showed recognizable reduction in the severity of osteOArthritic
respiratory changes [5]: 250, and 750 mg/kg of ibuprofenamine were not associated with respiratory
Physician's Global Assessment of Disease Status: Improved (percentage of patients who improved by 2 grades or more from baseline, or from 1 to 0) ([6]; 8.75 mg/knee (BID)): 10.5%
Physician's Global Assessment of Disease Status: Worsened (percentage of patients who worsened by 2 grades or more from baseline, or from 3 to 4) ([6]; 8.75 mg/knee (BID)): 1.8%
patients improved by 2 grades or more from baseline (physician's global assessment) ([6]; 8.75 mg/knee (BID)): 10.5%
Physician's Global Assessment of Disease Status: Improved (percentage of patients who improved by 2 grades or more from baseline, or from 1 to 0) ([6]; 17.5 mg/knee (BID)): 35.6%
Physician's Global Assessment of Disease Status: Worsened (percentage of patients who worsened by 2 grades or more from baseline, or from 3 to 4) ([6]; 17.5 mg/knee (BID)): 1.7%
Physician's Global Assessment of Disease Status: Improved (percentage of patients who improved by 2 grades or more from baseline, or from 1 to 0) ([6]; 35 mg/knee (BID)): 30.9%
Physician's Global Assessment of Disease Status: Worsened (percentage of patients who worsened by 2 grades or more from baseline, or from 3 to 4) ([6]; 35 mg/knee (BID)): 0%
